Data from ChEMBL document CHEMBL1145573, “Lead identification to generate isoquinolinedione inhibitors of insulin-like growth factor receptor (IGF-1R) for potential use in cancer treatment” (Bioorg Med Chem Lett, 2008).
Converted amounts (≈) assume the structure as drawn.

Columns and labels:
[1] = Inhibition of IGFR
[2] = Ratio of IC50 for IR to IC50 for IGFR
[3] = Aqueous solubility at pH 7.4; format: physicochemical

SMILES | IC50 [1] [nM] | Ratio IC50 [2] | solubility [3] [µg/mL]
COc1ccc(Nc2ccc3c(c2)/C(=C/Nc2ccc(CN4CCCCC4)cc2)C(=O)NC3=O)cc1 | 971 | – | –
NC(=O)c1ccc(Nc2ccc3c(c2)/C(=C/Nc2ccc(CN4CCCCC4)cc2)C(=O)NC3=O)cc1 | 957 | – | –
COc1cccc(Nc2ccc3c(c2)/C(=C/Nc2ccccc2)C(=O)NC3=O)c1 | > 10000 | – | –
COc1cccc(Nc2ccc3c(c2)/C(=C/Nc2ccc(CN(C)C)cc2)C(=O)NC3=O)c1 | 1390 | 0.48 | –
O=C1NC(=O)c2ccc(Nc3ccc4c(c3)OCO4)cc2/C1=C/Nc1ccc(CN2CCCCC2)cc1 | 894 | – | –
COc1cc(Nc2ccc3c(c2)/C(=C/Nc2ccc(CN4CCCCC4)cc2)C(=O)NC3=O)cc(C(F)(F)F)c1 | > 10000 | – | –
CC(=O)c1cccc(Nc2ccc3c(c2)/C(=C/Nc2ccc(CN4CCCCC4)cc2)C(=O)NC3=O)c1 | 438 | 0.72 | –
O=C1NC(=O)c2ccc(Nc3cccc(Cl)c3)cc2/C1=C/Nc1ccccc1 | > 10000 | – | –
CC1CN(c2ccc(N/C=C3\C(=O)NC(=O)c4ccc(-c5ccoc5)cc43)cc2)CC(C)N1 (stereo unspecified) | 629 | 1 | –
CC(=O)c1cccc(Nc2ccc3c(c2)/C(=C/Nc2ccc(CN(C)C)cc2)C(=O)NC3=O)c1 | 887 | 0.87 | –
CC(=O)c1cccc(Nc2ccc3c(c2)/C(=C/Nc2ccc(N4CC(C)NC(C)C4)cc2)C(=O)NC3=O)c1 (stereo unspecified) | 540 | 0.85 | –
O=C1NC(=O)c2ccc(Nc3cccc4ncccc34)cc2/C1=C/Nc1ccc(CN2CCCCC2)cc1 | 5200 | – | –
CCN(CC)Cc1ccc(N/C=C2\C(=O)NC(=O)c3ccc(Nc4ccc(C)cc4)cc32)cc1 | 1160 | 0.64 | –
CN1CCN(c2ccc(N/C=C3\C(=O)NC(=O)c4ccc(NS(=O)(=O)c5ccccc5)cc43)cc2)CC1 | 829 | 0.83 | –
CC(=O)c1cccc(Nc2ccc3c(c2)/C(=C/Nc2ccc(N4CCN(C)CC4)cc2)C(=O)NC3=O)c1 | 319 | 1.6 | 1000 (≈ 2020 µM)
CCOC(=O)c1ccc(Nc2ccc3c(c2)/C(=C/Nc2ccc(CN4CCCCC4)cc2)C(=O)NC3=O)cc1 | > 10000 | – | –
O=C1NC(=O)c2ccc(Nc3ccc4[nH]ccc4c3)cc2/C1=C/Nc1ccc(CN2CCCCC2)cc1 | > 10000 | – | –
CC(=O)c1ccc(Nc2ccc3c(c2)/C(=C/Nc2ccc(CN4CCCCC4)cc2)C(=O)NC3=O)cc1 | 5890 | – | –
CN(C)Cc1ccc(N/C=C2\C(=O)NC(=O)c3ccc(Nc4ccccc4)cc32)cc1 | 920 | 0.62 | –
O=C1NC(=O)c2ccc(Nc3cccc(C(F)(F)F)c3)cc2/C1=C/Nc1ccc(CN2CCCCC2)cc1 | > 10000 | – | –
COc1ccc(Nc2ccc3c(c2)/C(=C/Nc2ccc(CN(C)C)cc2)C(=O)NC3=O)cc1 | 566 | 0.69 | –
CN(C)Cc1ccc(N/C=C2\C(=O)NC(=O)c3ccc(Br)cc32)cc1 | 7170 | 0.58 | –
O=C1NC(=O)c2ccc(Nc3ccc4c(c3)CCC4)cc2/C1=C/Nc1ccc(CN2CCCCC2)cc1 | 7930 | – | –

Now from value to compound:

IC50 [1] [nM] | Ratio IC50 [2] | solubility [3] [µg/mL] | SMILES
2390 | – | – | O=C1NC(=O)c2ccc(Nc3cccc(Cl)c3)cc2/C1=C/Nc1ccc(CN2CCCCC2)cc1
715 | 0.75 | – | O=C1NC(=O)c2ccc(-c3ccoc3)cc2/C1=C/Nc1ccc(CN2CCCCC2)cc1
498 | 1.14 | – | Cc1ccc(Nc2ccc3c(c2)/C(=C/Nc2ccc(CN4CCCCC4)cc2)C(=O)NC3=O)cc1
> 10000 | – | – | Cc1cccc(Nc2ccc3c(c2)/C(=C/Nc2ccc(CN4CCCCC4)cc2)C(=O)NC3=O)c1
610 | – | – | COc1ccccc1Nc1ccc2c(c1)/C(=C/Nc1ccc(CN3CCCCC3)cc1)C(=O)NC2=O
> 10000 | – | – | CN(C)c1ccc(Nc2ccc3c(c2)/C(=C/Nc2ccc(CN4CCCCC4)cc2)C(=O)NC3=O)cc1
2630 | – | – | O=C1NC(=O)c2ccc(Nc3cccc(F)c3)cc2/C1=C/Nc1ccc(CN2CCCCC2)cc1
1660 | – | – | O=C1NC(=O)c2ccc(Nc3ccccc3Cl)cc2/C1=C/Nc1ccc(CN2CCCCC2)cc1
2890 | – | – | O=C1NC(=O)c2ccc(Br)cc2/C1=C/Nc1ccc(CN2CCCCC2)cc1
4200 | – | – | N#Cc1ccccc1Nc1ccc2c(c1)/C(=C/Nc1ccc(CN3CCCCC3)cc1)C(=O)NC2=O
1130 | – | – | N#Cc1cccc(Nc2ccc3c(c2)/C(=C/Nc2ccc(CN4CCCCC4)cc2)C(=O)NC3=O)c1
> 10000 | – | – | O=C1NC(=O)c2ccc(Nc3ccc(Cl)cc3)cc2/C1=C/Nc1ccc(CN2CCCCC2)cc1
1080 | – | – | COc1cccc(Nc2ccc3c(c2)/C(=C/Nc2ccc(CN4CCCCC4)cc2)C(=O)NC3=O)c1
4140 | – | – | Cc1ccccc1Nc1ccc2c(c1)/C(=C/Nc1ccc(CN3CCCCC3)cc1)C(=O)NC2=O
> 10000 | – | – | Nc1cccc(Nc2ccc3c(c2)/C(=C/Nc2ccc(CN4CCCCC4)cc2)C(=O)NC3=O)c1
2420 | – | – | O=C1NC(=O)c2ccc(Br)cc2/C1=C/Nc1ccc(CN2CCCC2)cc1
1330 | – | – | N#Cc1ccc(Nc2ccc3c(c2)/C(=C/Nc2ccc(CN4CCCCC4)cc2)C(=O)NC3=O)cc1
455 | 0.87 | – | O=C1NC(=O)c2ccc(Nc3ccccc3)cc2/C1=C/Nc1ccc(CN2CCCCC2)cc1
